From US20100167397A1, “ENDOCRINE CELL LINES AND METHOD OF USING THE SAME” (KYOWA HAKKO KOGYO CO., LTD., priority 2002, published 2010)
Changes are numbered by the printed parent chain. Numbers in names are those of the source. One block for each molecule: values may come before it.

Legend:
CRE reporter in GBCRC6 = assay: Constitutive activity of GPCR, Method 1 (GBCRC6 host, Renilla reniformis luciferase, induction ratio with 17β-estradiol); assay type: cell-based, human; details: for Constitutive Activity (induction ratio): Method 1, GBCRC6 host, activity with 17β-estradiol divided by activity without, control plasmid about 1; for Constitutive Activity: method 1 of (2) of Example 22, induction ratio of reporter activity with 17β-estradiol; for induction ratio (constitutive activity): method of (2) of Example 22 utilizing GBCRC6 as a host
Procedure: After the incubation, coelenterazine h (Molecular Proves) (final concentration 250 nmol/L) was added to measure the activity of Renilla reniformis luciferase. For the activity measurement, a Wallac 1420 ARVOsx Multilabel Counter (manufactured by Wallac Berthold Japan) or a VIM camera (Argus-50/2D Luminometer/MP; manufactured by Hamamatsu Photonics) was used.
In each method, the induction ratio of the cells transfected with the control plasmid was about 1. It is judged that the higher the induction ratio of the cells to which a GPCR expression plasmid was transfected, the stronger the constitutive activity of the GPCR.

gene expression via CRE = assay: CRE-luciferase reporter stimulation in Namalwa KJM-1 / KJMGER8 cells carrying pACREpluc or pACRERluc; assay type: cell-based, human; details: Namalwa KJM-1 with pACREpluc, 5 hours
Procedure: A reporter plasmid pACREpluc was dissolved in a TE buffer so as to make 1 μg/μl and the plasmid was transfected to Namalwa KJM-1 cells by an electroporation method [Cytotechnology, 3, 133 (1990)] using 4 μg to 6×10^6 cells to give transformants.
The transformants were subcultured in RPMI 1640-ITPSG medium containing hygromycin B (300 μg/ml).
In order to confirm whether gene expression via CRE took place, the transformants were stimulated under the following condition using 5′-N-ethylcarboxamide adenosine (NECA: manufactured by Sigma) which is an agonist of type 2a adenosine receptor (A2a), forskolin (manufactured by Sigma) which is an activator for adenylate cyclase or A23187 (manufactured by Research Biochemicals International) which is a calcium ionophore.
Thus, the above stable transformants were dispensed in an amount of 1×10^5 cells per well of a 48-well plate, then NECA (final concentration 100 nmol/L), forskolin (final concentration 100 μmol/L) or A23187 (final concentration 10 μmol/L) was added and stimulation was conducted by incubating in a CO2 incubator for 5 hours.
Accordingly, when the cells are stimulated by any substance, it is believed to be preferred to measure the activity after 6 hours from the stimulation.
After the incubation, firefly luciferase activity in each well was measured using the method mentioned in (4) of Example 18. With regard to a device for the measurement, Micro Lumat LB96P (manufactured by Berthold) was used. Seventeen clones having high activity were selected.
The 17 clones were used, stimulation with NECA was applied by the same manner as in the above (2), comparison with the case where no stimulation with NECA was conducted and 8 clones where luciferase activity rose to an extent of 60-fold or more were selected. Such 8 clones were named GBC1 to GBC8 respectively.
After that, coelenterazine h (Molecular Probes) (final concentration 250 nmol/L) was added to measure the activity of Renilla reniformis luciferase. For the measurement of the activity, a Wallac 1420 ARVOsx Multilable Counter (manufactured by Wallac Berthold Japan) was used. Nine clones having high activity were selected. The 9 clones were named GBCR1 to GBCR9, respectively.
With regard to the 9 clones, stimulation with NECA was conducted and, as compared with the case no stimulation with NECA was done, 2 clones where the activity of Renilla reniformis luciferase increased to an extent of not less than 18-fold were selected. The 2 clones were named GBCR1 and GBCR2, respectively.

Constitutive Activity (induction ratio) (CRE reporter in GBCRC6): 15-fold
Molecule: GPR 88

Constitutive Activity (CRE reporter in GBCRC6): 56-fold
Molecule: OGR1S221N/D118A: OGR1S221N mutant GPCR with 118th aspartic acid substituted with alanine; SEQ ID NO: 189

Constitutive Activity (induction ratio) (CRE reporter in GBCRC6): 20-fold
Molecule: GPCR 25

Constitutive Activity (induction ratio) (CRE reporter in GBCRC6): 12.7-fold
Molecule: OGR1S221N

Constitutive Activity (induction ratio) (CRE reporter in GBCRC6): 12-fold
Molecule: GPR 61

Constitutive Activity (induction ratio) (CRE reporter in GBCRC6): 40-fold
Molecule: GPR 4

Constitutive Activity (induction ratio) (CRE reporter in GBCRC6): 3.6-fold
Molecule: OGR1

Constitutive Activity (induction ratio) (CRE reporter in GBCRC6): 63-fold
Molecule: GPR 6

Molecule: CNc1ccc2oc(C[C@H]3O[C@@]4(CC[C@H]3C)O[C@H]([C@H](C)C(=O)c3ccc[nH]3)[C@H](C)C[C@H]4C)nc2c1C(=O)O [A23187]
change of firefly luciferase activity (gene expression via CRE; A23187 10 μmol/L): rarely changed

Molecule: C=C[C@@]1(C)CC(=O)[C@]2(O)[C@@]3(C)[C@@H](O)CCC(C)(C)[C@@H]3[C@H](O)[C@H](OC(C)=O)[C@@]2(C)O1 [forskolin]
increase of firefly luciferase activity (gene expression via CRE; forskolin 100 μmol/L): about 10 fold

Constitutive Activity (induction ratio) (CRE reporter in GBCRC6): 27-fold
Molecule: GPR 30

Constitutive Activity (induction ratio) (CRE reporter in GBCRC6): 25-fold
Molecule: GPR 35

Constitutive Activity (induction ratio) (CRE reporter in GBCRC6): 12-fold
Molecule: GPR 62

Constitutive Activity (induction ratio) (CRE reporter in GBCRC6): 11-fold
Molecule: GPR 92

Constitutive Activity (CRE reporter in GBCRC6): 35-fold
B1: GPCR25D111A: GPCR25 mutant GPCR, 111th aspartic acid substituted with alanine; SEQ ID NO: 192 (protein)
chain: MNSTCIEEQHDLDHYLFPIVYIFVIIVSIPANIGSLCVSFLQPKKESELGIYLFSLSLSDLLYALTLPLWIDYTWNKDNWTFSPALCKGSAFLMYMKFYSSTAFLTCIAVARYLAVVYPLKFFFLRTRRIALMVSLSIWILETIFNAVMLWEDETVVEYCDAEKSNFTLCYDKYPLEKWQINLNLFRTCTGYAIPLVTILICNRKVYQAVRHNKATENKEKKRIIKLLVSITVTFVLCFTPFHVMLLIRCILEHAVNFEDHSNSGKRTYTMYRITVALTSLNCVADPILYCFVTETGRYDMWNILKFCTGRCNTSQRQRKRILSVSTKDTMELEVLE
modifications: GPCR25D111A

Constitutive Activity (CRE reporter in GBCRC6): 32-fold
B2: RE2D124A: RE2 mutant GPCR, 124th aspartic acid substituted with alanine; SEQ ID NO: 190 (protein)
chain: MSLNSSLSCRKELSNLTEEEGGEGGVIITQFIAIIVITIFVCLGNLVIVVTLYKKSYLLTLSNKFVFSLTLSNFLLSVLVLPFVVTSSIRREWIFGVVWCNFSALLYLLISSASMLTLGVIAIARYYAVLYPMVYPMKITGNRAVMALVYIWLHSLIGCLPPLFGWSSVEFDEFKWMCVAAWHREPGYTAFWQIWCALFPFLVMLVCYGFIFRVARVKARKVHCGTVVIVEEDAQRTGRKNSSTSTSSSGSRRNAFQGVVYSANQCKALITILVVLGAFMVTWGPYMVVIASEALWGKSSVSPSLETWATWLSFASAVCHPLIYGLWNKTVRKELLGMCFGDRYYREPFVQRQRTSRLFSISNRITDLGLSPHLTALMAGGQPLGHSSSTGDTGFSCSQDSGNLRAL
modifications: RE2D124A

induction ratio (constitutive activity) (CRE reporter in GBCRC6): about 3 fold
B3: PGMO334E135F: mutant where the 135th glutamic acid of the PGMO334 polypeptide was substituted with phenylalanine; SEQ ID NO: 193 (protein)
chain: MSPECARAAGDAPLRSLEQANRTRFPFFSDVKGDHRLVLAAVETTVLVLIFAVSLLGNVCALVLVARRRRRGATACLVLNLFCADLLFISAIPLVLAVRWTEAWLLGPVACHLLFYVMTLSGSVTILTLAAVSLFRMVCIVHLQRGVRGPGRRARAVLLALIWGYSAVAALPLCVFFRVVPQRLPGADQEISICTLIWPTIPGEISWDVSFVTLNFLVPGLVIVISYSKILQITKASRKRLTVSLAYSESHQIRVSQQDFRLFRTLFLLMVSFFIMWSPIIITILLILIQNFKQDLVIWPSLFFWVVAFTFANSALNPILYNMTLCRNEWKKIFCCFWFPEKGAILTDTSVKRNDLSIISG
modifications: PGMO334E135F

induction ratio (constitutive activity) (CRE reporter in GBCRC6): about 5 fold
B4: PGMO334D259S: mutant where the 259th aspartic acid of PGMO334 polypeptide was substituted with serine; SEQ ID NO: 196 (protein)
chain: B3 chain with F135E, D259S
modifications: PGMO334D259S

induction ratio (constitutive activity) (CRE reporter in GBCRC6): about 3 fold
B5: PGMO334E135Q: mutant where the 135th glutamic acid of PGMO334 polypeptide was substituted with glutamine; SEQ ID NO: 194 (protein)
chain: B3 chain with F135Q
modifications: PGMO334E135Q

induction ratio (constitutive activity) (CRE reporter in GBCRC6): about 14 fold
B6: PGMO334E135A: mutant where the 135th glutamic acid of PGMO334 polypeptide was substituted with alanine; SEQ ID NO: 195 (protein)
chain: B3 chain with F135A
modifications: PGMO334E135A

induction ratio (constitutive activity) (CRE reporter in GBCRC6): about 2 fold
B7: GPR43R217P: mutant where the 217th arginine of GPR43 polypeptide was substituted with proline; SEQ ID NO: 197 (protein)
chain: MLPDWKSSLILMAYIIIFLTGLPANLLALRAFVGRIRQPQPAPVHILLLSLTLADLLLLLLLPFKIIEAASNFRWYLPKVVCALTSFGFYSSIYCSTWLLAGISIERYLGVAFPVQYKLSRRPLYGVIAALVAWVMSFGHCTIVIIVQYLNTTEQVRSGNEITCYENFTDNQLDVVLPVRLELCLVLFFIPMAVTIFCYWRFVWIMLSQPLVGAQRPRRAVGLAVVTLLNFLVCFGPYNVSHLVGYHQRKSPWWRSIAVVFSSLNASLDPLLFYFSSSVVRRAFGRGLQVLRNQGSSLLGRRGKDTAEGTNEDRGVGQGEGMPSSDFTTE
modifications: GPR43R217P

induction ratio (constitutive activity) (CRE reporter in GBCRC6): about 17 fold
B8: GPR43R217PE106D: GPR43R217P mutant where the 106th glutamic acid was substituted with aspartic acid; SEQ ID NO: 198 (protein)
chain: B7 chain with E106D
modifications: GPR43R217P/E106D

Constitutive Activity (induction ratio) (CRE reporter in GBCRC6): 20-fold
B9: G2A (protein, UniProt Q9UNW8 1-380, looked up)
Probable G-protein coupled …: MCPMLLKNGYNGNATPVTTTAPWASLGLSAKTCNNVSFEESRIVLVVVYSAVCTLGVPANCLTAWLALLQVLQGNVLAVYLLCLALCELLYTGTLPLWVIYIRNQHRWTLGLLACKVTAYIFFCNIYVSILFLCCISCDRFVAVVYALESRGRRRRRTAILISACIFILVGIVHYPVFQTEDKETCFDMLQMDSRIAGYYYARFTVGFAIPLSIIAFTNHRIFRSIKQSMGLSAAQKAKVKHSAIAVVVIFLVCFAPYHLVLLVKAAAFSYYRGDRNAMCGLEERLYTASVVFLCLSTVNGVADPIIYVLATDHSRQEVSRIHKGWKEWSMKTDVTRLTHSRDTEELQSPVALADHYTFSRPVHPPGSPCPAKRLIEESC

Constitutive Activity (CRE reporter in GBCRC6): 97-fold
B10: GPR35D113A: GPR35 mutant GPCR, 113th aspartic acid substituted with alanine; SEQ ID NO: 191 (protein)
chain: MNGTYNTCGSSDLTWPPAIKLGFYAYLGVLLVLGLLLNSLALWVFCCRMQQWTETRIYMTNLAVADLCLLCTLPFVLHSLRDTSDTPLCQLSQGIYLTNRYMSISLVTAIAVARYVAVRHPLRARGLRSPRQAAAVCAVLWVLVIGSLVARWLLGIQEGGFCFRSTRHNFNSMRFPLLGFYLPLAVVVFCSLKVVTALAQRPPTDVGQAEATRKAARMVWANLLVFVVCFLPLHVGLTVRLAVGWNACALLETIRRALYITSKLSDANCCLDAICYYYMAKEFQEASALAVAPRAKAHKSQDSLCVTLA
modifications: GPR35D113A
